Measured values reported in US9587266B2, “Mutant luciferases” (University of Massachusetts, priority 2011, dated 2017).
“And” between values parts separate entries of the source, which are not always exact repeats. Equal entries are not always repeated.

Legend:
WT luciferase [1] = molecular target: T1, WT luciferase (Photinus pyralis, UniProt P08659); format: biochemical; details: WT luciferase treated with D-luciferin; inhibitor 2 or 20 μM, enzyme titration
T1 construct: The full firefly (Photinus pyralis) luciferase gene was PCR amplified from pGL3 (Promega); GST (N, cleaved yes); made in house; host or cells: E. coli JM109
Description: Luminescence assays in 96-well plates were initiated by adding 30 μL 2× luciferin substrate in 20 mM Tris pH 7.4, 0.1 mM EDTA, 8 mM MgSO4, 4 mM ATP, and 1 mM TCEP to 30 μL of 20 nM purified luciferase in 20 mM Tris pH 7.4, 0.1 mM EDTA, 1 mM TCEP and 0.4 mg/mL BSA. Substrate titration assays were performed 3 minutes post-substrate addition in a Turner Veritas luminometer with final substrate concentrations ranging from 0.122-250 μM in the presence of 0 μM, 1 μM, or 10 μM of the luciferase inhibitor 2-(4-methoxyphenyl)benzothiazole. Enzyme titration assays were performed under the same conditions, using 0 μM, 2 or 20 μM of the luciferase inhibitor 2-(4-methoxyphenyl)benzothiazole, a constant final luciferin substrate concentration of 20 μM, and serial 2-fold dilutions of luciferase concentration from 20 nM down to 0.01 nM.

R218K luciferase [2] = molecular target: T2, R218K luciferase (Photinus pyralis, UniProt P08659, R218K); experiment: Small molecule luciferase inhibition assay; format: biochemical; details: inhibitor 2 or 20 μM, enzyme titration
T2 construct: The full firefly (Photinus pyralis) luciferase gene was PCR amplified from pGL3 (Promega); GST (N, cleaved yes); made in house; host or cells: E. coli JM109
Description: Enzyme titration assays were performed under the same conditions, using 0 μM, 2 or 20 μM of the luciferase inhibitor 2-(4-methoxyphenyl)benzothiazole, a constant final luciferin substrate concentration of 20 μM, and serial 2-fold dilutions of luciferase concentration from 20 nM down to 0.01 nM.

L286M mutant luciferase = molecular target: T3, L286M mutant luciferase (Photinus pyralis, UniProt P08659, L286M); experiment: Titration assay with purified protein; format: biochemical
T3 construct: The full firefly (Photinus pyralis) luciferase gene was PCR amplified from pGL3 (Promega); GST (N, cleaved yes); made in house; host or cells: E. coli JM109
Description: (§1) The PCR product was cloned into the BamH1 and NotI sites of pGEX6P-1 for bacterial expression. Mutant proteins were created using the Quickchange site-directed mutagenesis kit (Stratagene). Saturating mutagenesis was performed using the used the degenerate codon NNK at sites predicted to impact or alter substrate biding including F247, T251, L286, S347, R337, R218, Q338, Y340, A313, and I351 using the degenerate codon NNK.
(§2) Luminescence assays in 96-well plates were initiated by adding 30 μL 2× substrate in 20 mM Tris pH 7.6, 0.1 mM EDTA, 8 mM MgSO4, 4 mM ATP, and 1 mM TCEP to 30 μL of 20 nM purified luciferase in 20 mM Tris pH 7.6, 0.1 mM EDTA, 1 mM TCEP and 0.4 mg/mL BSA.

T251S mutant luciferase = molecular target: T4, T251S mutant luciferase (Photinus pyralis, UniProt P08659, T251S); experiment: Titration assay with purified protein; format: biochemical
T4 construct: The full firefly (Photinus pyralis) luciferase gene was PCR amplified from pGL3 (Promega); GST (N, cleaved yes); made in house; host or cells: E. coli JM109
Description: as §1, §2

R218K mutant luciferase = molecular target: T5, R218K mutant luciferase (Photinus pyralis, UniProt P08659, R218K); format: biochemical; details: R218K luciferase, purified protein
T5 construct: The full firefly (Photinus pyralis) luciferase gene was PCR amplified from pGL3 (Promega); GST (N, cleaved yes); made in house; host or cells: E. coli JM109
Description: as §1, §2

S347A mutant luciferase = molecular target: T6, S347A mutant luciferase (Photinus pyralis, UniProt P08659, S347A); format: biochemical; details: for Apparent Vmax: purified protein
T6 construct: The full firefly (Photinus pyralis) luciferase gene was PCR amplified from pGL3 (Promega); GST (N, cleaved yes); made in house; host or cells: E. coli JM109
Description: as §1, §2

F247L mutant luciferase = F247L mutant luciferase (Photinus pyralis, UniProt P08659, F247L); details: F247L mutant relative to wild-type luciferase
Description: as §1, with “NNK. The point mutants S347A, L286A, A348G, E311A, I351A, A313G, R337A, H245A and L342A were made independently.” for “NNK.”
as §2, with “BSA. Titration assays were performed 3 minutes post-substrate addition in a Turner Veritas luminometer with final substrate concentrations ranging from 0.122-250 μM or 0.244-500 μM.” for “BSA.”

WT luciferase [3] = molecular target: T1, WT luciferase; experiment: Titration assay with purified protein; format: biochemical
Description: as §1, with “NNK. The point mutants S347A, L286A, A348G, E311A, I351A, A313G, R337A, H245A and L342A were made independently.” for “NNK.”
as §2, with “BSA. Titration assays were performed 3 minutes post-substrate addition in a Turner Veritas luminometer with final substrate concentrations ranging from 0.122-250 μM or 0.244-500 μM.” for “BSA.”

R218K + L342A luciferase = molecular target: T7, R218K + L342A luciferase (Photinus pyralis, UniProt P08659, L342A/R218K); format: biochemical
T7 construct: The full firefly (Photinus pyralis) luciferase gene was PCR amplified from pGL3 (Promega); GST (N, cleaved yes); made in house; host or cells: E. coli JM109
Description: (§3) Purified mutant luciferases were used in bioluminescence emission and burst kinetics scans. Each purified protein in 20 mM Tris pH 7.6, 0.1 mM EDTA, 1 mM TCEP and 0.4 mg/mL BSA was added to 2× substrate in 20 mM Tris pH 7.6, 0.1 mM EDTA, 8 mM MgSO4, 4 mM ATP, and 1 mM TCEP in a cuvette.
(§4) Luciferase was rapidly injected into a cuvette containing substrate, and the emission from 400-800 nm was recorded in a SPEX FluoroMax-3 fluorimeter with closed excitation slits.

WT luciferase [4] = molecular target: T1, WT luciferase; format: biochemical; details: for Wavelength at Max. Emission: Table 2
Description: as §3, §4

F247L L286M luciferase = molecular target: T8, F247L L286M luciferase (Photinus pyralis, UniProt P08659, F247L/L286M); experiment: Bioluminescence emission scan; format: biochemical
T8 construct: The full firefly (Photinus pyralis) luciferase gene was PCR amplified from pGL3 (Promega); GST (N, cleaved yes); made in house; host or cells: E. coli JM109
Description: (§5) Purified mutant luciferases were used in bioluminescence emission and burst kinetics scans.
as §4

L286M + S347A luciferase = molecular target: T9, L286M + S347A luciferase (Photinus pyralis, UniProt P08659, L286M/S347A); experiment: Bioluminescence emission scan; format: biochemical
T9 construct: The full firefly (Photinus pyralis) luciferase gene was PCR amplified from pGL3 (Promega); GST (N, cleaved yes); made in house; host or cells: E. coli JM109
Description: as §5, §4

L342A luciferase = molecular target: T10, L342A luciferase (Photinus pyralis, UniProt P08659, L342A); experiment: Bioluminescence emission scan; format: biochemical
T10 construct: The full firefly (Photinus pyralis) luciferase gene was PCR amplified from pGL3 (Promega); GST (N, cleaved yes); made in house; host or cells: E. coli JM109
Description: as §5, §4

R218K luciferase [5] = molecular target: T2, R218K luciferase; experiment: Bioluminescence emission scan; format: biochemical
Description: as §5, §4

S347A luciferase = molecular target: T11, S347A luciferase (Photinus pyralis, UniProt P08659, S347A); experiment: Bioluminescence emission scan; format: biochemical
T11 construct: The full firefly (Photinus pyralis) luciferase gene was PCR amplified from pGL3 (Promega); GST (N, cleaved yes); made in house; host or cells: E. coli JM109
Description: as §5, §4

S347T luciferase = molecular target: T12, S347T luciferase (Photinus pyralis, UniProt P08659, S347T); experiment: Bioluminescence emission scan; format: biochemical
T12 construct: The full firefly (Photinus pyralis) luciferase gene was PCR amplified from pGL3 (Promega); GST (N, cleaved yes); made in house; host or cells: E. coli JM109
Description: as §5, §4

T251S L286M luciferase = molecular target: T13, T251S L286M luciferase (Photinus pyralis, UniProt P08659, L286M/T251S); experiment: Bioluminescence emission scan; format: biochemical
T13 construct: The full firefly (Photinus pyralis) luciferase gene was PCR amplified from pGL3 (Promega); GST (N, cleaved yes); made in house; host or cells: E. coli JM109
Description: as §5, §4

F247A luciferase = molecular target: T14, F247A luciferase (Photinus pyralis, UniProt P08659, F247A); experiment: Bioluminescence emission scan; format: biochemical
T14 construct: The full firefly (Photinus pyralis) luciferase gene was PCR amplified from pGL3 (Promega); GST (N, cleaved yes); made in house; host or cells: E. coli JM109
Description: as §5, §4

F247R luciferase = molecular target: T15, F247R luciferase (Photinus pyralis, UniProt P08659, F247R); experiment: Bioluminescence emission scan; format: biochemical
T15 construct: The full firefly (Photinus pyralis) luciferase gene was PCR amplified from pGL3 (Promega); GST (N, cleaved yes); made in house; host or cells: E. coli JM109
Description: as §5, §4

F247S luciferase = molecular target: T16, F247S luciferase (Photinus pyralis, UniProt P08659, F247S); experiment: Bioluminescence emission scan; format: biochemical
T16 construct: The full firefly (Photinus pyralis) luciferase gene was PCR amplified from pGL3 (Promega); GST (N, cleaved yes); made in house; host or cells: E. coli JM109
Description: as §5, §4

F247V luciferase = molecular target: T17, F247V luciferase (Photinus pyralis, UniProt P08659, F247V); experiment: Bioluminescence emission scan; format: biochemical
T17 construct: The full firefly (Photinus pyralis) luciferase gene was PCR amplified from pGL3 (Promega); GST (N, cleaved yes); made in house; host or cells: E. coli JM109
Description: as §5, §4

L286M luciferase = molecular target: T18, L286M luciferase (Photinus pyralis, UniProt P08659, L286M); experiment: Bioluminescence emission scan; format: biochemical
T18 construct: The full firefly (Photinus pyralis) luciferase gene was PCR amplified from pGL3 (Promega); GST (N, cleaved yes); made in house; host or cells: E. coli JM109
Description: as §5, §4

L286Y luciferase = molecular target: T19, L286Y luciferase (Photinus pyralis, UniProt P08659, L286Y); experiment: Bioluminescence emission scan; format: biochemical
T19 construct: The full firefly (Photinus pyralis) luciferase gene was PCR amplified from pGL3 (Promega); GST (N, cleaved yes); made in house; host or cells: E. coli JM109
Description: as §5, §4

T251N luciferase = molecular target: T20, T251N luciferase (Photinus pyralis, UniProt P08659, T251N); experiment: Bioluminescence emission scan; format: biochemical
T20 construct: The full firefly (Photinus pyralis) luciferase gene was PCR amplified from pGL3 (Promega); GST (N, cleaved yes); made in house; host or cells: E. coli JM109
Description: as §5, §4

T251Q luciferase = molecular target: T21, T251Q luciferase (Photinus pyralis, UniProt P08659, T251Q); experiment: Bioluminescence emission scan; format: biochemical
T21 construct: The full firefly (Photinus pyralis) luciferase gene was PCR amplified from pGL3 (Promega); GST (N, cleaved yes); made in house; host or cells: E. coli JM109
Description: as §5, §4

T251S luciferase = molecular target: T22, T251S luciferase (Photinus pyralis, UniProt P08659, T251S); experiment: Bioluminescence emission scan; format: biochemical
T22 construct: The full firefly (Photinus pyralis) luciferase gene was PCR amplified from pGL3 (Promega); GST (N, cleaved yes); made in house; host or cells: E. coli JM109
Description: as §5, §4

[6] = read-out: Apparent Km, 3 minutes post-substrate addition

T6 sequence (P08659 whole entry S347A): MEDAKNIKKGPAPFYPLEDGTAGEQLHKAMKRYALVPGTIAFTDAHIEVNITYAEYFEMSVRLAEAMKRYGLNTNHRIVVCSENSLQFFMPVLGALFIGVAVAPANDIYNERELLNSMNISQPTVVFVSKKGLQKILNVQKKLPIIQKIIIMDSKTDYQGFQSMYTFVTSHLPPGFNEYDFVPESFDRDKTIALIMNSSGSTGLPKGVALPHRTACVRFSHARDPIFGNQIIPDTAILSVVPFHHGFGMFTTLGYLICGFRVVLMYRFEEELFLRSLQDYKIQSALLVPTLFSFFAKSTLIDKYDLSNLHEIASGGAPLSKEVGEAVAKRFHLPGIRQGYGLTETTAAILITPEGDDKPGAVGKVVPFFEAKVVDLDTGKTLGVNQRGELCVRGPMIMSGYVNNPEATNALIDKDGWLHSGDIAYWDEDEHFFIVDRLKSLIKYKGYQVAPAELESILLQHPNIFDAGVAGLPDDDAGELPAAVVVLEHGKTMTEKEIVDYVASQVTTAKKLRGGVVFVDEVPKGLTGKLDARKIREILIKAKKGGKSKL
T2 sequence (P08659 whole entry R218K): as the sequence (P08659 whole entry S347A) above, with R218K, A347S counted along it
T5 sequence (P08659 whole entry R218K): as the sequence (P08659 whole entry S347A) above, with R218K, A347S counted along it
T3 sequence (P08659 whole entry L286M): as the sequence (P08659 whole entry S347A) above, with L286M, A347S counted along it
T4 sequence (P08659 whole entry T251S): as the sequence (P08659 whole entry S347A) above, with T251S, A347S counted along it
T1 sequence (P08659 whole entry): as the sequence (P08659 whole entry S347A) above, with A347S counted along it
T12 sequence (P08659 whole entry S347T): as the sequence (P08659 whole entry S347A) above, with A347T counted along it
T11 sequence (P08659 whole entry S347A): as the sequence (P08659 whole entry S347A) above
Chain of F247L mutant luciferase (P08659 whole entry F247L): as the sequence (P08659 whole entry S347A) above, with F247L, A347S counted along it
T15 sequence (P08659 whole entry F247R): as the sequence (P08659 whole entry S347A) above, with F247R, A347S counted along it
T19 sequence (P08659 whole entry L286Y): as the sequence (P08659 whole entry S347A) above, with L286Y, A347S counted along it
T10 sequence (P08659 whole entry L342A): as the sequence (P08659 whole entry S347A) above, with L342A, A347S counted along it
T9 sequence (P08659 whole entry L286M/S347A): as the sequence (P08659 whole entry S347A) above, with L286M counted along it
T18 sequence (P08659 whole entry L286M): as the sequence (P08659 whole entry S347A) above, with L286M, A347S counted along it
T7 sequence (P08659 whole entry R218K/L342A): as the sequence (P08659 whole entry S347A) above, with R218K, L342A, A347S counted along it
T21 sequence (P08659 whole entry T251Q): as the sequence (P08659 whole entry S347A) above, with T251Q, A347S counted along it
T17 sequence (P08659 whole entry F247V): as the sequence (P08659 whole entry S347A) above, with F247V, A347S counted along it
T22 sequence (P08659 whole entry T251S): as the sequence (P08659 whole entry S347A) above, with T251S, A347S counted along it
T14 sequence (P08659 whole entry F247A): as the sequence (P08659 whole entry S347A) above, with F247A, A347S counted along it
T8 sequence (P08659 whole entry F247L/L286M): as the sequence (P08659 whole entry S347A) above, with F247L, L286M, A347S counted along it
T20 sequence (P08659 whole entry T251N): as the sequence (P08659 whole entry S347A) above, with T251N, A347S counted along it
T13 sequence (P08659 whole entry T251S/L286M): as the sequence (P08659 whole entry S347A) above, with T251S, L286M, A347S counted along it
T16 sequence (P08659 whole entry F247S): as the sequence (P08659 whole entry S347A) above, with F247S, A347S counted along it

COc1ccc(-c2nc3ccccc3s2)cc1 [2-(4-methoxyphenyl)-benzothiazole, 2-(4-methoxyphenyl)benzothiazole]
effect of luciferase inhibitor on light output (WT luciferase [1]): strongly inhibited | effect of luciferase inhibitor on light output (R218K luciferase [2]; R218K luciferase treated with D-luciferin): strongly inhibited | effect of luciferase inhibitor on light output (R218K luciferase [2]; R218K luciferase with CycLuc2 as substrate): largely unaffected

Nc1ccc2nc(C3=N[C@@H](C(=O)O)CS3)sc2c1 [6′-NH2LH2, 6′-aminoluciferin]
Apparent Vmax (L286M mutant luciferase): 62 ± 0.7 ×10^−5 cps | Apparent Vmax (T251S mutant luciferase): 51 ± 0.3 ×10^−5 cps | Apparent Vmax (R218K mutant luciferase): 157 ± 3.7 ×10^−5 cps | Apparent Vmax (S347A mutant luciferase): 91 ± 0.4 ×10^−5 cps | improvement of maximal sustained light emission (F247L mutant luciferase): 4.9 fold and > 5 fold | Apparent Vmax (WT luciferase [3]): 35 ± 0.25 ×10^−5 cps | Maximum Emission Wavelength of Selected Substrate (R218K + L342A luciferase): 594 nm | Wavelength at Max. Emission (WT luciferase [4]): 595 nm | Maximum Emission Wavelength of Selected Substrate (WT luciferase [4]; Table 3): 594 nm | Wavelength at Max. Emission (F247L L286M luciferase): 592 nm | Maximum Emission Wavelength of Selected Substrate (L286M + S347A luciferase): 589 nm | Maximum Emission Wavelength of Selected Substrate (L342A luciferase): 591 nm | Maximum Emission Wavelength of Selected Substrate (R218K luciferase [5]): 599 nm | Wavelength at Max. Emission (S347A luciferase): 591 nm | Wavelength at Max. Emission (S347T luciferase): 583 nm | Wavelength at Max. Emission (T251S L286M luciferase): 602 nm

O=C(O)[C@H]1CSC(c2nc3ccc(O)cc3s2)=N1 [D-Luciferin, D-luciferin]
Apparent Vmax (L286M mutant luciferase): 1060 ± 26 ×10^−5 cps | Km (L286M mutant luciferase; [6]): 19.1 ± 1.3 µM | Apparent Vmax (T251S mutant luciferase): 1054 ± 19 ×10^−5 cps | Km (T251S mutant luciferase; [6]): 114 ± 3.4 µM | Apparent Vmax (R218K mutant luciferase): 1541 ± 21 ×10^−5 cps | Km (R218K mutant luciferase; [6]): 106 ± 2.6 µM | Apparent Vmax (S347A mutant luciferase): 142.8 ± 3 ×10^−5 cps | Km (S347A mutant luciferase; read-out: Apparent Km, purified protein, 3 minutes post-substrate addition): 76.6 ± 3.1 µM | Apparent Vmax (WT luciferase [3]): 1079 ± 13 ×10^−5 cps | Wavelength at Max. Emission (WT luciferase [4]): 554 nm | Wavelength at Max. Emission (F247A luciferase): 591 nm | Wavelength at Max. Emission (F247R luciferase): 605 nm | Wavelength at Max. Emission (F247S luciferase): 588 nm | Wavelength at Max. Emission (F247V luciferase): 600 nm | Wavelength at Max. Emission (L286M luciferase): 564 nm | Wavelength at Max. Emission (L286Y luciferase): 606 nm | Wavelength at Max. Emission (S347A luciferase): 573 nm | Wavelength at Max. Emission (S347T luciferase): 561 nm | Wavelength at Max. Emission (T251N luciferase): 555 nm | Wavelength at Max. Emission (T251Q luciferase): 626 nm | Wavelength at Max. Emission (T251S luciferase): 553 nm
